# Ends that are not written are not given here.
# What was measured:
# Type in all cases: cell-based
# [1] = system: Staphylococcus aureus MRSA
# Experimental: (§1) The antimicrobial potential of the peptide described herein was compared with the activity of, two other AMPs, TcAMP1 and TcAMP2 as discussed in WO1998027805, and antibiotics or fungicides. Comparative MIC assays were carried out against several bacterial and fungal species (Table 1).
# (§2) Peptides according to SEQ ID N° 1, SEQ ID N° 4, and SEQ ID N° 5 were serially diluted in order to create a concentration sequence ranging from 0.39 μg/ml to […].
# (§3) Pantoea, Staphylococcus, and Listeria were cultured in Trypticase Soy Broth (TSY) medium consisting of 1.7% casein peptone, 0.3% soy peptone, 0.25% glucose, 0.5% NaCl, 0.25% K2HPO4 and optionally 1.5% agar. Candida cells were cultured in Yeast Extract Peptone Dextrose (YPD) broth medium consisting of 1% yeast extract, 2% peptone, 2% glucose, and optionally 2% agar. Ceratocystis, Botrytis, Leptosphaeria, Mycosphaerella, Sclerotinia, and Verticillium were cultured in Potato Dextrose Agar (PDA) medium consisting of 2.4% Difco pre-mix broth and optionally 1.5% agar.
# (§4) For the MIC assay bacteria and fungi were grown on agar plates with their respective media. Pre-cultures were prepared by inoculating either single bacterial colonies or small pieces of fungi in 5 ml of the respective liquid medium. The optical density (OD) at 600 nm was measured after one to five days and adjusted to an OD600 of 1. This cell suspension was used to prepare 1:500 dilutions, corresponding to approximately 2×10^6 microbial cells per ml.
# (§5) To evaluate MICs, 96-well plates were prepared with the test antimicrobial peptides. Each well contained 100 μl microbial cell culture, 90 μl culture medium, and 10 μl peptide or control at the corresponding dilution. The plates were incubated overnight (ON) at the optimal growth temperature for each tested organism. Results were visually evaluated and MICs determined based on growth or no-growth.
# (§6) MIC assays were conducted in at least two independent replicates and with different peptide starting concentrations.
# Ceratosystis paradoxa = system: Ceratosystis paradoxa
# Experimental: as §1, §2, §3, §4, §5, §6
# Botrytis cinerea = system: Botrytis cinerea
# Experimental: as §1, §2, §3, §4, §5, §6
# Mycosphaerella pinodes = system: Mycosphaerella pinodes
# Experimental: as §1, §2, §3, §4, §5, §6
# Leptosphaeria maculans = system: Leptosphaeria maculans
# Experimental: as §1, §2, §3, §4, §5, §6
# Listeria monocytogenes = system: Listeria monocytogenes
# Experimental: as §1, §2, §3, §4, §5, §6
# Pantoea agglomerans = system: Pantoea agglomerans
# Experimental: as §1, §2, §3, §4, §5, §6
# Sclerotinia sclerotiorum = system: Sclerotinia sclerotiorum
# Experimental: as §1, §2, §3, §4, §5, §6
# Candida albicans = system: Candida albicans
# Experimental: as §1, §2, §3, §4, §5, §6
# Verticillium dahliae = system: Verticillium dahliae
# Experimental: as §1, §2, §3, §4, §5, §6
# tested fungal species = assay: MIC assays, all tested fungal species; settings: all the tested fungal species
# Experimental: as §1, §2, §3
# For the MIC assay bacteria and fungi were grown on agar plates with their respective media. […] The optical density (OD) at 600 nm was measured after one to five days and adjusted to an OD600 of 1. […]
# To evaluate MICs, 96-well plates were prepared with the test antimicrobial peptides. […] Results were visually evaluated and MICs determined based on growth or no-growth. […]
sequence,measurement,setting,value
YGRKQYERDPRQQYEQCQRRCESEATEEREQEQCEQRCEREYKEQQRQQEEELQRQ (cysteines drawn unpaired) [SEQ ID No 1],Minimal inhibitory concentration,[1],3.2 µg/mL
same,Minimal inhibitory concentration,Ceratosystis paradoxa,1.9 µg/mL
same,Minimal inhibitory concentration,Botrytis cinerea,3.5 µg/mL
same,Minimal inhibitory concentration,Mycosphaerella pinodes,2.8 µg/mL
same,Minimal inhibitory concentration,Leptosphaeria maculans,12.5 µg/mL
same,Minimal inhibitory concentration,Listeria monocytogenes,1.6 µg/mL
same,Minimal inhibitory concentration,Pantoea agglomerans,2.5 µg/mL
same,Minimal inhibitory concentration,Sclerotinia sclerotiorum,10.4 µg/mL
same,Minimal inhibitory concentration,Candida albicans,3.85 µg/mL
same,Minimal inhibitory concentration,Verticillium dahliae,3.85 µg/mL
same,inhibitory effects in MIC assays,tested fungal species,inhibitory effects against all the tested fungal species

# From patent US20250304633A1, “PEPTIDE HAVING ANTIMICROBIAL ACTIVITY” (CABOSSE NATURALS NV, priority 2022, published 2025)
